Patent US20250082781A1, “METHODS OF LOWERING BLOOD GLUCOSE AND TREATING TYPE 2 DIABETES BY ACTIVATION OF PDE4D3” (Salk Institute for Biological Studies, priority 2021, published 2025)

Key:
serum FFA levels = assay: Serum FFA levels in DIO mice; format: in vivo, mouse; settings: ad lib fed DIO mice, roflumilast 5 mg/kg p.o., 1 h
Protocol: (§1) Mice were kept in 12 h light/dark cycle in a temperature-controlled environment. Mice had free access to food and water unless noted otherwise. C57/B6 mice background was used unless noted otherwise. C57BL/6J and ob/ob (000632-B6. Cg-Lepob/J) male mice were obtained from Jackson Laboratory. PDE4D knock-out mice (034588-UCD) were obtained from MMRRC. For diet-induced obesity (DIO) studies, mice were fed a high fat diet (HFD) (60% fat, F3282; Bio-Serv) for minimum of 12 weeks to induce insulin resistance when diet-induced obese model is used. Insulin levels and blood glucose levels were monitored to confirm insulin resistance. To generate adipose-specific FGFR1 deletion, adiponectin-cre mice (B6; FVB-Tg (Adipoq-cre)1Evdr/J; Stock: 010803) were crossed to Fgfr1 flox/flox (B6.129S4-Fgfr1tm5.1Sor/J; Stock: 00767) mice. For AAV mediated expression of target proteins in adipose tissue, 5×10E+11 genomic copies of AAV were injected via tail vein or retro-orbital route.
(§2) Recombinant FGF1 (rFGF1) was dissolved in phosphate-buffered saline (PBS) at a concentration of 0.2 mg/ml and was injected subcutaneously at a 0.5 mg kg^−1 dose. Blood glucose was monitored at indicated time points after injection. For initial measurements (2-4 h) food was removed after injection to exclude any indirect effects stemming from anorexigenic effects of FGF1. PDE4 inhibitor roflumilast stock in DMSO was diluted at 1 mg/ml in 30% captisol, pH 10 and delivered to mice thorough oral gavage at 5 mg kg^−1 dose. PDE3 inhibitor cilostamide stock in DMSO was diluted at 2 mg/ml in 30% captisol and delivered through intraperitoneal injection at 10 mg kg^−1 dose.

blood glucose levels [1] = assay: Blood glucose levels in DIO mice; format: in vivo, mouse; settings: roflumilast 5 mg/kg p.o.
Protocol: as §1, §2

[2] = system: HSL phosphorylation at S660; assay: Western blot of pHSL-S660 in 3T3-L1 adipocytes; format: cell-based; settings: basal and ISO-stimulated cells, roflumilast 2 μM
Protocol: Tissues were lysed in cold lysis buffer (50 mM Tris, pH 7.5, 150 mM NaCl, 1% NP40, 0.5% NaDoc, 0.1% SDS, 5% glycerol, 1 mM EDTA, protease and phosphatase inhibitors (complete and PhosSTOP (Roche)) by homogenization by bead-beater for 30 s. Samples were cleared for 10 min at 18,000 g at 4° C. and the middle clear phase was transferred to new tubes. A second 30 min centrifugation was performed and the middle clear phase was transferred to new tubes. Five ul protein extract was used for BCA assay to determine protein concentration. Samples were boiled in Laemmli buffer. SDS-PAGE and blotting were performed using gradient gels and Trans-Blot Turbo Transfer System (Bio-Rad). Antibodies used were PDE4D (12918-1-AP, Proteintech), pHSL-660 (4126S, Cell signaling), HSL (4107S, Cell Signaling), tubulin (CP06, Millipore Sigma), and GFP (A01388, GenScript). PDE4D3-pS44 phospho-specific antibody was generated using PDE4D3-S44 FRRHpSWISFDVDNGTSAGR peptide (SEQ ID NO: 20) (Mackenzie et al., 2002) by Pocono Rabbit Farm, using 70-day rabbit antibody production protocol and purified via affinity purification. Primary antibodies were incubated for 2 h at room temperature (RT) or overnight (ON) at 4° C. Blots were developed using SuperSignal West Pico PLUS Chemiluminescent Substrate (ThermoFisher Scientific) and imaged with BioRad GelDoc system.

[3] = Serum insulin levels in DIO mice; format: in vivo, mouse; settings: ad lib fed DIO mice, roflumilast 5 mg/kg p.o., 1 h
Protocol: as §1
Recombinant FGF1 (rFGF1) was dissolved in phosphate-buffered saline (PBS) at a concentration of 0.2 mg/ml and was injected subcutaneously at a 0.5 mg kg^−1 dose. Blood glucose was monitored at indicated time points after injection. For initial measurements (2-4 h) food was removed after injection to exclude any indirect effects stemming from anorexigenic effects of FGF1. […]

[4] = target: FGFR1 on mouse adipocytes (mouse) (UniProt P16092); assay: cell-based or functional assay
Sequence of UniProt P16092 (P16092 22-822): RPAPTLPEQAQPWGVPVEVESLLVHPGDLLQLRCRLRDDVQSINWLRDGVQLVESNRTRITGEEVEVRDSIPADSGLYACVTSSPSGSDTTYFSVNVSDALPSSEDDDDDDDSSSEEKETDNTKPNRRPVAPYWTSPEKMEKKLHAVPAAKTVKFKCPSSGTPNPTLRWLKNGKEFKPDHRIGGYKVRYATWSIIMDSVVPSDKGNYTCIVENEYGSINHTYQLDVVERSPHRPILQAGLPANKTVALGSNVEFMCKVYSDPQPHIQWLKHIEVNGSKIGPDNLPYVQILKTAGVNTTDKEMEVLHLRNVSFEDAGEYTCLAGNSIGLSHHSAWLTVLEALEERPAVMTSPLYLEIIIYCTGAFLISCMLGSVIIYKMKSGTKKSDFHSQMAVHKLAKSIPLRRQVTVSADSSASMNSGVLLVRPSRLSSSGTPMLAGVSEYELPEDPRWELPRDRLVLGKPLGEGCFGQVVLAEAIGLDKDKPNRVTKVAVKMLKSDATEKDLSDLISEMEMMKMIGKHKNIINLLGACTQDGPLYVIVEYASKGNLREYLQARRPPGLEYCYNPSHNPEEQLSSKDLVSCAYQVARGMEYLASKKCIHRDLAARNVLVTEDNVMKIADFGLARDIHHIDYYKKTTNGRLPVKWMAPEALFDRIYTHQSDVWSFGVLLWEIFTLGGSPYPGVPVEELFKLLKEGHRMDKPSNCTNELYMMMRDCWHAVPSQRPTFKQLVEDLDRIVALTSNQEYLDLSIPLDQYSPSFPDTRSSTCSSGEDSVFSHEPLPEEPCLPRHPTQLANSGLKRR

blood glucose levels [5] = assay: Blood glucose levels in ob/ob mice; format: in vivo, mouse; settings: ad lib fed ob/ob mice, atglistatin 120 mg/kg p.o
Protocol: as §1, §2

[6] = target: T1, GFP-tagged perilipin (perilipin-GFP), Q8CGN5
T1 chain: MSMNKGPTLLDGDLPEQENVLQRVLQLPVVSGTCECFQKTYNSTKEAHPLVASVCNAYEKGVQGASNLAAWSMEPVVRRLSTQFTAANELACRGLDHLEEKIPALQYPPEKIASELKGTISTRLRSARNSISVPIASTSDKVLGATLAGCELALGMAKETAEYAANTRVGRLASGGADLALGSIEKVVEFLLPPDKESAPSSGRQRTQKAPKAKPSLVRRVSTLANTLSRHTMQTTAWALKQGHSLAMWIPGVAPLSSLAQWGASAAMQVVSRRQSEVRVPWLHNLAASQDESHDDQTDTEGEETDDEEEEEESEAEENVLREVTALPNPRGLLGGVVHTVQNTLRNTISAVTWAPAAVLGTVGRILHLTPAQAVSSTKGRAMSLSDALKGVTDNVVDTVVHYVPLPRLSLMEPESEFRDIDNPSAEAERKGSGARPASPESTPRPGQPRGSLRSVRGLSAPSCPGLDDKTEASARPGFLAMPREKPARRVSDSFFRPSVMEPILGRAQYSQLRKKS

O=C(Nc1c(Cl)cncc1Cl)c1ccc(OC(F)F)c(OCC2CC2)c1 [roflumilast, reference compound]
serum FFA (serum FFA levels): transiently increased
blood glucose (blood glucose levels [1]; ad lib fed DIO mice): transiently increased
blood glucose levels (blood glucose levels [1]; fasted DIO mice): more sustained increase in blood glucose levels
ability of FGF1 to suppress HSL phosphorylation in presence of roflumilast [2]: lost
insulin levels [3]: transiently increased

Recombinant FGF1 (rFGF1) (ligand)
serum FFA levels in DIO adR1WT and adR1KO mice [4]: 30%

CN(C)C(=O)Nc1cccc(-c2ccc(N(C)C)cc2)c1 [Atglistatin, reference compound]
blood glucose levels (blood glucose levels [5]): rapidly lowered blood glucose levels

B1: mCherry-tagged HSL (HSL-mCherry) (protein)
chain: MDLRTMTQSLVTLAEDNMAFFSSQGPGETARRLSNVFAGVREQALGLEPTLGQLLGVAHHFDLDTETPANGYRSLVHTARCCLAHLLHKSRYVASNRKSIFFRASHNLAELEAYLAALTQLRAMAYYAQRLLTINRPGVLFFEGDEGLTADFLQEYVTLHKGCFYGRCLGFQFTPAIRPFLQTLSIGLVSFGEHYKRNETGLSVTASSLFTGGRFAIDPELRGAEFERIIQNLDVHFWKAFWNITEIEVLSSLANMASTTVRVSRLLSLPPEAFEMPLTSDPRLTVTISPPLAHTGPAPVLARLISYDLREGQDSKVLNSLAKSEGPRLELRPRPHQAPRSRALVVHIHGGGFVAQTSKSHEPYLKNWAQELGVPIFSIDYSLAPEAPFPRALEECFFAYCWAVKHCDLLGSTGERICLAGDSAGGNLCITVSLRAAAYGVRVPDGIMAAYPVTTLQSSASPSRLLSLMDPLLPLSVLSKCVSAYSGTEAEDHFDSDQKALGVMGLVQRDTSLFLRDLRLGASSWLNSFLELSGRKPQKTTSPTAESVRPTESMRRSVSEAALAQPEGLLGTDTLKKLTIKDLSNSEPSDSPEMSQSMETLGPSTPSDVNFFLRPGNSQEEAEAKDEVRPMDGVPRVRAAFPEGFHPRRSSQGVLHMPLYTSPIVKNPFMSPLLAPDSMLKTLPPVHLVACALDPMLDDSVMFARRLRDLGQPVTLKVVEDLPHGFLSLAALCRETRQATEFCVQRIRLILTPPAAPLN
co-localization of perilipin-GFP and HSL-mCherry in live 3T3-L1 adipocytes (fluorescence overlap, confocal microscopy) [6]: FGF1 reduced the isoproterenol-induced co-localization of perilipin-GFP and HSL-mCherry
